Experimental data as given in patent publication US7855196B2 (priority 2005, dated 2010).
Where two headings read alike, the source gives them in different places.

Key:
[1] = Sedation / side effects observed in treated patients (clinical case examples)

Cc1ncc2n1-c1ccc(Cl)cc1C(c1ccccc1F)=NC2 [midazolam]
sedation ([1]; Example 2: midazolam 2 mg iv): experienced sedation | sedation ([1]; Example 5: midazolam 2 mg iv): did not present any signs of sedation | improvement of pain (human, in vivo, iv): 40% | level of pain after treatment (human, in vivo, iv): 3/10 | pain level after treatment (human, in vivo, iv): 0/10 | pain rating after treatment (human, in vivo, iv): 3/10

CCOC(=O)c1ncn2c1CN(C)C(=O)c1cc(F)ccc1-2 [flumazenil]
low back pain after injection (Example 3: phantom-like pain, patient on alprazolam 6 mg a day, flumazenil 100 μg, 5 minutes after injection, before 7/10): 5/10 | effect on midazolam response to pain (Example 4: flumazenil 200 μg iv 5 minutes after midazolam 2 mg iv (ratio 10:1)): without altering the midazolam response to pain | pain after treatment (Example 5: flumazenil 200 μg iv after midazolam 2 mg iv, before 3/10): pain disappeared | pain 25 minutes after treatment (Example 8: further flumazenil 300 μg iv after midazolam 5 mg and flumazenil 500 μg, 25 minutes after treatment): 4/10 | pain rating after treatment (Example 8: further flumazenil 300 μg iv ten minutes later, after 5 minutes, before 5/10): 3/10 | pain level while moving arm (human, in vivo, iv): 1/10

Cc1nnc2n1-c1ccc(Cl)cc1C(c1ccccc1)=NC2 [alprazolam, 8-chloro-1-methyl-6-phenyl-4H-s-triazolo[4,3-a][1,4] benzodiazepine]
sedation limiting augmentation of dosage ([1]; Example 1: alprazolam 0.5 mg TID and 2 mg HS): severe patient sedation | sedation limiting augmentation of dosage ([1]; Example 2: alprazolam 0.25 mg QID): severe sedation | side effects ([1]; Example 8: alprazolam 5 mg/day): experienced alprazolam side effects | pain rating after treatment (human, in vivo): 4/10 | pain remission (human, in vivo): increased period of pain remission | pain response (human, in vivo): sustained results
